This note sets out measurements from patent US20210355106A1, “NEW AMINO-PYRIMIDONYL-PIPERIDINYL DERIVATIVES, A PROCESS FOR THEIR PREPARATION AND PHARMACEUTICAL COMPOSITIONS CONTAINING THEM” (LES LABORATOIRES SERVIER, priority 2018, published 2021).

A word on the Ki: it is the dissociation constant of the complex between target and ligand, obtained from inhibition or displacement. A lower Ki goes with higher affinity. Broadly, the IC50 is the concentration that inhibits the measured activity by half. A higher IC50 goes with a need for much substance.

In one experiment the target is T1, USP7 (Homo sapiens, UniProt Q93009, C315A).
T1 construct: 0.25 nM His-His-USP7 (aa208-560, |C315A|) was incubated with compound; His-His (N)
Nature of the experiment: Inhibition of USP7 by Fluorescence Intensity (FLINT) readings, Ubiquitin-Rhodamine-110 substrate. Type of experiment: biochemical. The conditions noted are these: 0.25 nM His-His-USP7 (aa208-560), 60 minutes at 30° C. preincubation; Ki determined from IC50 according to Cer et al. A digest of the protocol: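 Kinetic rate of Rhodamine-110 release from ubiquitin substrate (50 nM or 4 μM), read every 3 min for 21 min, after 60 min, 30 °C preincubation of 0.25 nM USP7 catalytic domain C315A with compound. Bicine pH 8.0 buffer, 10% DMSO; 11-point IC50 vs DMSO and no-enzyme controls, converted to Ki.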

Experiment [1] relates to Z138 mantle cell lymphoma tumour cell lines. Nature of the experiment: In vitro cytotoxicity, MTT assay. Type of experiment: cell-based. Particulars: Z138 cells, exposed to the test compounds for 96 hours. In outline:
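MTT viability read-out: after 96 hours of compound treatment, Z138 mantle cell lymphoma cells received MTT for 4 hours, and formazan production was quantified by absorbance at 540 nm.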
(Tetrazolium dyes change colour on reduction, which living cells bring about.)

Each structure is given as a SMILES string.

T1 sequence (Q93009 208-560 C315A): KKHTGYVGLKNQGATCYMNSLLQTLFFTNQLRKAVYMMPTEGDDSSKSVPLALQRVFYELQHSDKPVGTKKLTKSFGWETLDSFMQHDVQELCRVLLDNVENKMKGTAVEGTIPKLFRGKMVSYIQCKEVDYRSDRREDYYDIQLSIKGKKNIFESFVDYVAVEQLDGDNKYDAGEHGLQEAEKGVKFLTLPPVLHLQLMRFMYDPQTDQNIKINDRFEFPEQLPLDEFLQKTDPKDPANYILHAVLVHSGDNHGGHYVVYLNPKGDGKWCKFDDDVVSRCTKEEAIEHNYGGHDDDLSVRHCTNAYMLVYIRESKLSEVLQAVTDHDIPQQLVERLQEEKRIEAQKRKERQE

The compound `Cc1nc(Cc2ccccc2)sc1C(=O)N1CC[C@@H](C(=O)N2CCC(O)(Cn3cnc(Oc4ccc(F)cc4)c(N)c3=O)CC2)[C@H](c2ccccc2)C1` [Example 61, 5-amine-3-({1-[(3R,4R)-1-(2-benzyl-4-methyl-1,3-thiazole-5-carbonyl)-3-phenylpiperidine-4-carbonyl]-4-hydroxypiperidin-4-yl)methyl)-6-(4-fluorophenoxy)pyrimidin-4(3H)-one] registered a Ki at USP7 of 7.9 nM. Half-maximal inhibition in experiment [1] (Homo sapiens, Z-138) (IC50) required 17 nM.
For `Nc1c(Oc2ccc(F)cc2)ncn(CC2(O)CCN(C(=O)[C@@H]3CCN(Cc4cccnc4)C[C@H]3c3ccccc3)CC2)c1=O` [Example 62, 5-amino-6-(4-fluorophenoxy)-3-[(4-hydroxy-1-{(3R,4R)-3-phenyl-1-[(pyridin-3-yl)methyl]piperidine-4-carbonyl)piperidin-4-yl)methyl]pyrimidin-4(3H)-one], in that order: 14 nM and 14 nM.
For `Nc1c(Oc2ccc(F)cc2)ncn(CC2(O)CCN(C(=O)[C@@H]3CCN(Cc4cnccn4)C[C@H]3c3ccccc3)CC2)c1=O` [Example 63], in that order: 12.4 nM and 16.3 nM.
For `Cc1nc(N2CCOCC2)sc1C(=O)N1CC[C@@H](C(=O)N2CCC(O)(Cn3cnc(Oc4ccc(F)cc4)c(N)c3=O)CC2)[C@H](c2ccccc2)C1` [Example 64, 5-amino-6-(4-fluorophenoxy)-3-[(4-hydroxy-1-{(3R,4R)-1-[4-methyl-2-(morpholin-4-yl)-1,3-thiazole-5-carbonyl]-3-phenylpiperidine-4-carbonyl)piperidin-4-yl)methyl]pyrimidin-4(3H)-one], in that order: 6.4 nM and 8.39 nM.
Turning to `Cc1nc(N2CCCC2)sc1C(=O)N1CC[C@@H](C(=O)N2CCC(O)(Cn3cnc(Oc4ccc(F)cc4)c(N)c3=O)CC2)[C@H](c2ccccc2)C1` [Example 65, 5-amino-6-(4-fluorophenoxy)-3-[(4-hydroxy-1-{(3R,4R)-1-[4-methyl-2-(pyrrolidin-1-yl)-1,3-thiazole-5-carbonyl]-3-phenylpiperidine-4-carbonyl]piperidin-4-yl)methyl]pyrimidin-4(3H)-one], the Ki on USP7 amounted to 4.2 nM. Further, in experiment [1] (Homo sapiens, Z-138), the IC50 was 7.66 nM.
The matching figures for `Cc1nc(-c2ccccc2)sc1C(=O)N1CC[C@@H](C(=O)N2CCC(O)(Cn3cnc(Oc4ccc(F)cc4)c(N)c3=O)CC2)[C@H](c2ccccc2)C1` [Example 66, 5-amino-6-(4-fluorophenoxy)-3-({4-hydroxy-1-[(3R,4R)-1-(4-methyl-2-phenyl-1,3-thiazole-5-carbonyl)-3-phenylpiperidine-4-carbonyl]piperidin-4-yl}methyl)pyrimidin-4(3H)-one]: 6.5 nM and 4.5 nM.
In turn, `Nc1c(Oc2ccc(F)cc2)ncn(CC2(O)CCN(C(=O)[C@@H]3CCN(C(=O)c4sc(Br)c5c4OCCO5)C[C@H]3c3ccccc3)CC2)c1=O` [Example 67] yielded a Ki at USP7 of 14 nM. Besides, in experiment [1], 27.8 nM corresponded to half-maximal inhibition (IC50).
At USP7, `Cc1ccc(-c2sc(C(=O)N3CC[C@@H](C(=O)N4CCC(O)(Cn5cnc(Oc6ccc(F)cc6)c(N)c5=O)CC4)[C@H](c4ccccc4)C3)c3c2OCCO3)cn1` [Example 68, 5-amino-6-(4-fluorophenoxy)-3-[(4-hydroxy-1-{(3R,4R)-1-[7-(6-methylpyridin-3-yl)-2,3-dihydrothieno[3,4-b][1,4]dioxine-5-carbonyl]-3-phenylpiperidine-4-carbonyl]piperidin-4-yl)methyl]pyrimidin-4(3H)-one] showed a Ki of 4 nM. In addition, in experiment [1] (Homo sapiens, Z-138), the half-maximal inhibitory concentration (IC50) came to 6.67 nM.
The matching figures for `Nc1c(Oc2ccc(F)cc2)ncn(CC2(O)CCN(C(=O)[C@@H]3CCN(S(=O)(=O)c4cccc(Br)c4)C[C@H]3c3ccccc3)CC2)c1=O` [Example 69, 5-amino-3-[[1-[(3R,4R)-1-(3-bromophenyl)sulfonyl-3-phenyl-piperidine-4-carbonyl]-4-hydroxy-4-piperidyl]methyl]-6-(4-fluorophenoxy)pyrimidin-4-one]: 18.1 nM and 21.7 nM.
`CCOC(=O)C(c1ccccc1)N1CC[C@@H](C(=O)N2CCC(O)(Cn3cnc(Oc4ccc(F)cc4)c(N)c3=O)CC2)[C@H](c2ccccc2)C1` (stereo partly drawn) [Example 70] came in with an inhibitory constant (Ki) at USP7 of 63 nM. In experiment [1] (Homo sapiens, Z-138), this compound gave an IC50 of 34 nM.
On USP7, `CN(C(=O)CN1CC[C@@H](C(=O)N2CCC(O)(Cn3cnc(Oc4ccc(F)cc4)c(N)c3=O)CC2)[C@H](c2ccccc2)C1)c1ccccc1` [Example 74] registered a Ki of 78 nM. In addition, the concentration for half-maximal inhibition (IC50) in experiment [1] (Homo sapiens, Z-138) came to 70 nM.
`Nc1c(Oc2ccc(F)cc2)ncn(CC2(O)CCN(C(=O)[C@@H]3CCN(C(=O)C(F)(F)c4ccccc4)C[C@H]3c3ccccc3)CC2)c1=O` [Example 75, 5-amino-3-[[1-[(3R,4R)-1-(2,2-difluoro-2-phenyl-acetyl)-3-phenyl-piperidine-4-carbonyl]-4-hydroxy-4-piperidyl]methyl]-6-(4-fluorophenoxy)pyrimidin-4-one] showed a Ki on USP7 of 39 nM. It took 43 nM to reach half-maximal inhibition in experiment [1] (Homo sapiens, Z-138) (IC50).
The matching figures for `Nc1c(Oc2ccc(F)cc2)ncn(CC2(O)CCN(C(=O)[C@@H]3CCN(C(=O)Nc4ccccc4)C[C@H]3c3ccccc3)CC2)c1=O` [Example 76, (3R,4R).4-[4-[[5-amino-4-(4-fluorophenoxy)-6-oxo-pyrimidin-1-yl]methyl]-4-hydroxy-piperidine-1-carbonyl]-N,3-diphenyl-piperidine-1-carboxamide]: 17 nM and 22 nM.
As to `Nc1c(Oc2ccc(F)cc2)ncn(C[C@@]2(O)CCN(C(=O)[C@@H]3CCN(C(=O)Nc4ccccc4)C[C@H]3c3ccccc3)CC2(F)F)c1=O` [Example 77], on USP7, the inhibitory constant (Ki) came to 37 nM. In experiment [1] (Homo sapiens, Z-138), this compound yielded an IC50 of 13 nM.
For `CN(C(=O)N1CC[C@@H](C(=O)N2CCC(O)(Cn3cnc(Oc4ccc(F)cc4)c(N)c3=O)CC2)[C@H](c2ccccc2)C1)c1ccccc1` [Example 78, (3R,4R)-4-[4-[[5-amino-4-(4-fluorophenoxy)-6-oxo-pyrimidin-1-yl]methyl]-4-hydroxy-piperidine-1-carbonyl]-N-methyl-N,3-diphenyl-piperidine-1-carboxamide], in that order: 58 nM and 15 nM.
The matching figures for `COc1ccc(NC(=O)N2CC[C@@H](C(=O)N3CCC(O)(Cn4cnc(Oc5ccc(F)cc5)c(N)c4=O)CC3)[C@H](c3ccccc3)C2)cc1` [Example 80]: 19 nM and 6.2 nM.
Regarding `Nc1c(Oc2ccc(F)cc2)ncn(CC2(O)CCN(C(=O)[C@@H]3CCN(C(=O)Nc4cccc(C(F)(F)F)c4)C[C@H]3c3ccccc3)CC2)c1=O` [Example 81, (3R,4R)-4-(4-{15-amino-4-(4-fluorophenoxy)-6-oxopyrimidin-[(6H)-yl]methyl}-4-hydroxypiperidine-1-carbonyl)-3-phenyl-N-[3-(trifluoromethyl)phenyl]piperidine-1-carboxamide], at USP7, the inhibitory constant (Ki) was 44 nM. In addition, in experiment [1] (Homo sapiens, Z-138), the IC50 came to 5.1 nM.
For `Nc1c(Oc2ccc(F)cc2)ncn(CC2(O)CCN(C(=O)[C@@H]3CCN(C(=O)Nc4cccc(Br)c4)C[C@H]3c3ccccc3)CC2)c1=O` [Example 83], in that order: 42 nM and 8.5 nM.
